Legend:
TBI rats = assay: Controlled cortical impact TBI: Morris water maze; format: in vivo, rat; conditions: vs TBI-vehicle
Experimental: This study used male Sprague-Dawley rats weighing 300-350 g and aged 8 weeks, obtained from DBL Co. (Chungcheongbuk-do, Republic of Korea). The rats were housed in a controlled environment with a temperature of 20 ± 2 °C, a relative humidity of 55 ± 5%, and a 12-hour light/dark cycle. They were provided ad libitum access to food and water. To minimize stress associated with transportation, animals underwent a one-week acclimatization period before the start of the experiments. All experimental procedures were conducted in compliance with the guidelines of the National Institutes of Health for the care and use of laboratory animals and were approved by the Hallym University Institutional Animal Care and Use Committee (protocol # Hallym 2022-23, approved on July 15, 2022). This manuscript follows the principles outlined in the Animal research: reporting in vivo experiments (ARRIVE) guidelines.
A controlled cortical impact (CCI) model was used to induce TBI in rats. Animals were anesthetized with 1-1.5% isoflurane in a 30:70 oxygen-to-nitrous oxide mixture and securely positioned in a stereotaxic frame. A 3 mm craniotomy was performed using a portable drill at a site 2.8 mm lateral to the midline and 3.0 mm posterior to Bregma. TBI was induced using an Impact One™ Stereotaxic Impactor (Leica Biosystems) equipped with a 3 mm flat-tip, set to deliver an impact at a velocity of 5 m/s and a depth of 3 mm. Throughout the procedure, body temperature was maintained at 36-37.5°C using a homeothermic blanket system to prevent hypothermia. […] At designated time points (3 hours, 24 hours, or 2 weeks post-injury), animals were euthanized via transcardial perfusion with saline, followed by 4% paraformaldehyde (PFA). Brains were post-fixed in 4% PFA for 1 hour, cryoprotected in 30% sucrose, and sectioned at a 30 μm thickness using a cryostat microtome (CM1850; Leica, Wetzlar, Germany). Brain sections were stored in cryoprotectant solution at 4°C until further analysis.
The MWM is a well-established behavioral test used to assess cognitive function in rodents. […] The following parameters were recorded during the training sessions: 1) escape latency (time taken to reach the platform), 2) distance traveled to locate the platform, and 3) the number of target crossings (times the platform location was crossed). […] The time spent in the target quadrant (where the platform had been located during training) and the number of crossings over the platform location were recorded. Behavioral data, including escape latency, distance traveled, target crossings, and time spent in the target quadrant, were tracked and analyzed using smart video-tracking software (Panlab, Carrer de l'Energia, Spain).

[1] = test system: cultured cortical astrocytes; assay: Intracellular cAMP levels in cultured astrocytes; format: cell-based; conditions: 1-hour treatment, 0.1 to 10 µM, particularly at 1 μM and 10 μM
[2] = test system: primary hippocampal neurons; assay: Scratch injury: cAMP ELISA; format: cell-based, rat; conditions: 10 μM AMX immediately after scratch, 6 hours post-injury
Experimental: Primary hippocampal neurons were obtained from embryonic day 18 (E18) Sprague-Dawley rat embryos. Pregnant rats were anesthetized using 2-3% isoflurane in a gas mixture of 70% nitrous oxide and 30% oxygen. Following euthanasia, the hippocampi were carefully dissected, minced, and enzymatically dissociated using TrypLE Express (Gibco, NY, USA) for 10 minutes at 37°C. The tissue was further mechanically dissociated using fire-polished glass pipettes, and the resulting cell suspension was filtered through a 70 μm cell strainer to remove debris. Neurons were seeded at a density of 3 × 10^5 cells per well in 24-well plates pre-coated with poly-L-lysine (Sigma-Aldrich, Saint Louis, MO, USA). Cells were maintained in neurobasal medium supplemented with B-27 (Thermo Fisher Scientific, Waltham, MA, USA), GlutaMAX (Gibco), and penicillin-streptomycin. The cultures were incubated at 37.5°C in a humidified atmosphere containing 5% CO₂. After seven days of growth, neurons were fixed with 4% paraformaldehyde (PFA) for 15 minutes at room temperature and subsequently stored at 4°C until their further use for immunostaining. A scratch injury model was used to mimic TBI in vitro. […] After the treatment period, neuronal damage and recovery were assessed using appropriate evaluation methods. […]

[3] = test system: primary hippocampal neurons; assay: Scratch injury: cell viability analysis; format: cell-based, rat; conditions: scratched neurons, 24 hours post-scratch, 10 μM AMX
Experimental: Primary hippocampal neurons were obtained from embryonic day 18 (E18) Sprague-Dawley rat embryos. Pregnant rats were anesthetized using 2-3% isoflurane in a gas mixture of 70% nitrous oxide and 30% oxygen. Following euthanasia, the hippocampi were carefully dissected, minced, and enzymatically dissociated using TrypLE Express (Gibco, NY, USA) for 10 minutes at 37°C. The tissue was further mechanically dissociated using fire-polished glass pipettes, and the resulting cell suspension was filtered through a 70 μm cell strainer to remove debris. Neurons were seeded at a density of 3 × 10^5 cells per well in 24-well plates pre-coated with poly-L-lysine (Sigma-Aldrich, Saint Louis, MO, USA). Cells were maintained in neurobasal medium supplemented with B-27 (Thermo Fisher Scientific, Waltham, MA, USA), GlutaMAX (Gibco), and penicillin-streptomycin. The cultures were incubated at 37.5°C in a humidified atmosphere containing 5% CO₂. […]
A scratch injury model was used to mimic TBI in vitro. […] After the treatment period, neuronal damage and recovery were assessed using appropriate evaluation methods.
[…] After incubation, absorbance was measured at 450 nm using a microplate reader (Spectramax, Molecular Devices Co., CA, USA). […]

[4] = test system: activated microglia and astrocytes (Iba1, GFAP); conditions: post-seizure AMX treatment; cited from earlier work

CC(C)c1ccc2oc3nc(N)c(C(=O)O)cc3c(=O)c2c1 [AMX, amlexanox]
MWM distance to the hidden platform (TBI rats; days 8-12 post-TBI): reduced target distances | MWM escape latency (TBI rats; days 8-12 post-TBI): shorter escape latency | MWM platform crossings (TBI rats; probe trial): more frequent platform crossings | MWM time spent in the target quadrant (TBI rats; probe trial): increased time spent in the target quadrant | intracellular cAMP levels [1]: significantly increased intracellular cAMP levels | cAMP levels after scratch injury (ELISA) [2]: restored cAMP and p-PKA levels | cell viability [3]: substantially improved cell viability | activated microglia and astrocytes (Iba1, GFAP) [4]: markedly decreased activated microglia and astrocytes
